The numbers were not newly measured in patent US9913840B2, “Formulations for aripiprazole delivery transdermally” (Corium International, Inc., priority 2015, dated 2018), which cites them from elsewhere.

The conditions of this data set: at room temperature.

Regarding `O=C1CCc2ccc(OCCCCN3CCN(c4cccc(Cl)c4Cl)CC3)cc2N1` [Aripiprazole], the aqueous solubility result is “less than 1 μg/mL”.
